Source: the kinase profiling compilation of Christmann-Franck et al. (2016)

What was measured:
Test in all cases: KINOMEscan competition binding
Conditions in all cases: compound 1.0 µM
CSNK2A1 (human) = CSNK2A1 (human) (UniProt P68400)
[1] = test system: LRRK2 (human), Q5S007 [G2019S]
ACVR1B (human) = ACVR1B (human) (UniProt P36896)
MAK (human) = MAK (human) (UniProt P20794)
LATS1 (human) = LATS1 (human) (UniProt O95835)
DSTYK (human) = DSTYK (human) (UniProt Q6XUX3)
MAP4K4 (human) = MAP4K4 (human) (UniProt O95819)
CSNK2A2 (human) = CSNK2A2 (human) (UniProt P19784)
MYLK (human) = MYLK (human) (UniProt Q15746)
BMX (human) = BMX (human) (UniProt P51813)
STK38 (human) = STK38 (human) (UniProt Q15208)
ABL2 (human) = ABL2 (human) (UniProt P42684)
CDK9 (human) = CDK9 (human) (UniProt P50750)
BMP2K (human) = BMP2K (human) (UniProt Q9NSY1)
[2] = test system: FLT3 (human), P36888 [D835Y]
LIMK1 (human) = LIMK1 (human) (UniProt P53667)
[3] = target: TYK2 JH2 pseudokinase (human) (UniProt P29597)
PRKCI (human) = PRKCI (human) (UniProt P41743)
Sequence of PRKCI (human) (P41743 whole entry, looked up): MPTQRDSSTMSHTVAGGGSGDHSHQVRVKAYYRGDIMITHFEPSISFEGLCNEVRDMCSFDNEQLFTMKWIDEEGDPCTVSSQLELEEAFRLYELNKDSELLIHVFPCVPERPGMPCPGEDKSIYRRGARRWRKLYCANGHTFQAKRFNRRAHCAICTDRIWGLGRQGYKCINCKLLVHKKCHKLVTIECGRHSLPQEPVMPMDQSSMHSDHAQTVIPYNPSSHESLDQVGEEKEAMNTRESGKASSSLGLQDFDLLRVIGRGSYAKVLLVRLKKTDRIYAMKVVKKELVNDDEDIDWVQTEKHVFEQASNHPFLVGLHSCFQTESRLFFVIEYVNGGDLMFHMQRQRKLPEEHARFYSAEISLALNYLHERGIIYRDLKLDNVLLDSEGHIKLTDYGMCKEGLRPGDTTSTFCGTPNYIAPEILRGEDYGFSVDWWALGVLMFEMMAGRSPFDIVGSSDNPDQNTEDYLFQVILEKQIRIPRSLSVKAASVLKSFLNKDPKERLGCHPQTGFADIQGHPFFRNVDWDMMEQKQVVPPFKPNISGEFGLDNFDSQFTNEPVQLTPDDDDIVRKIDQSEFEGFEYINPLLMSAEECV

DYRK1B (human) = DYRK1B (human) (UniProt Q9Y463)
PIK3CA (human) = PIK3CA (human) (UniProt P42336)
Sequence of PIK3CA (human) (P42336 whole entry, looked up): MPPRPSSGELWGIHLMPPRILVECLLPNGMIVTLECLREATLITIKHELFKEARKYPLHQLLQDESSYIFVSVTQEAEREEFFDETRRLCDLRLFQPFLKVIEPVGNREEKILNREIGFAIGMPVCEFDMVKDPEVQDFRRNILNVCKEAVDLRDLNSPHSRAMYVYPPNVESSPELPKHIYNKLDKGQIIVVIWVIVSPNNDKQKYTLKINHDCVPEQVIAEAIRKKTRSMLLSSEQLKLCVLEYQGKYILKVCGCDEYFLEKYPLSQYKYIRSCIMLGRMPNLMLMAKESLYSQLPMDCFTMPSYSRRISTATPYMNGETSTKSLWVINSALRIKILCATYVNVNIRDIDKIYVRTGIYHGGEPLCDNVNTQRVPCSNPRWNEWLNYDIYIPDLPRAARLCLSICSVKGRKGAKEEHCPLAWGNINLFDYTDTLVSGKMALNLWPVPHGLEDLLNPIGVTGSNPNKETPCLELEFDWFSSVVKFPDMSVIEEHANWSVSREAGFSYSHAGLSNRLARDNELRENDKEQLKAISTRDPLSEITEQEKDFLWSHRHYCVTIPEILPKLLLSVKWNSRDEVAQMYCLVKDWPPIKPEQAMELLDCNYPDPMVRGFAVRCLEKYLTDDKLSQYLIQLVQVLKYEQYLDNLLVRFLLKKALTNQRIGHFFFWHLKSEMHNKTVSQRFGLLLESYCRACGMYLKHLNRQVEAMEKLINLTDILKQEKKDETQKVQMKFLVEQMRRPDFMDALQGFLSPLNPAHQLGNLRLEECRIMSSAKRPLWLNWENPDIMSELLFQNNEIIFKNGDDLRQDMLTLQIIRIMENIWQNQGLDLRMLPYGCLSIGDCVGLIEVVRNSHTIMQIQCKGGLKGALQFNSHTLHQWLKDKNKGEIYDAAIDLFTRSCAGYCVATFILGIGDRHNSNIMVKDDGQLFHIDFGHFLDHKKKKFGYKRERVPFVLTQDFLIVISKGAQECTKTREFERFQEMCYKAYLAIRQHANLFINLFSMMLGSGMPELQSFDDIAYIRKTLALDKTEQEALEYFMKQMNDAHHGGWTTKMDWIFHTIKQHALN

CDK8 (human) = CDK8 (human) (UniProt P49336)
MAPK15 (human) = MAPK15 (human) (UniProt Q8TD08)
SNRK (human) = SNRK (human) (UniProt Q9NRH2)
BMPR1B (human) = BMPR1B (human) (UniProt O00238)
DCLK1 (human) = DCLK1 (human) (UniProt O15075)
DCLK3 (human) = DCLK3 (human) (UniProt Q9C098)
EPHA4 (human) = EPHA4 (human) (UniProt P54764)
RIPK1 (human) = RIPK1 (human) (UniProt Q13546)
GRK4 (human) = GRK4 (human) (UniProt P32298)
MAP3K1 (human) = MAP3K1 (human) (UniProt Q13233)
Sequence of MAP3K1 (human) (Q13233 whole entry, looked up): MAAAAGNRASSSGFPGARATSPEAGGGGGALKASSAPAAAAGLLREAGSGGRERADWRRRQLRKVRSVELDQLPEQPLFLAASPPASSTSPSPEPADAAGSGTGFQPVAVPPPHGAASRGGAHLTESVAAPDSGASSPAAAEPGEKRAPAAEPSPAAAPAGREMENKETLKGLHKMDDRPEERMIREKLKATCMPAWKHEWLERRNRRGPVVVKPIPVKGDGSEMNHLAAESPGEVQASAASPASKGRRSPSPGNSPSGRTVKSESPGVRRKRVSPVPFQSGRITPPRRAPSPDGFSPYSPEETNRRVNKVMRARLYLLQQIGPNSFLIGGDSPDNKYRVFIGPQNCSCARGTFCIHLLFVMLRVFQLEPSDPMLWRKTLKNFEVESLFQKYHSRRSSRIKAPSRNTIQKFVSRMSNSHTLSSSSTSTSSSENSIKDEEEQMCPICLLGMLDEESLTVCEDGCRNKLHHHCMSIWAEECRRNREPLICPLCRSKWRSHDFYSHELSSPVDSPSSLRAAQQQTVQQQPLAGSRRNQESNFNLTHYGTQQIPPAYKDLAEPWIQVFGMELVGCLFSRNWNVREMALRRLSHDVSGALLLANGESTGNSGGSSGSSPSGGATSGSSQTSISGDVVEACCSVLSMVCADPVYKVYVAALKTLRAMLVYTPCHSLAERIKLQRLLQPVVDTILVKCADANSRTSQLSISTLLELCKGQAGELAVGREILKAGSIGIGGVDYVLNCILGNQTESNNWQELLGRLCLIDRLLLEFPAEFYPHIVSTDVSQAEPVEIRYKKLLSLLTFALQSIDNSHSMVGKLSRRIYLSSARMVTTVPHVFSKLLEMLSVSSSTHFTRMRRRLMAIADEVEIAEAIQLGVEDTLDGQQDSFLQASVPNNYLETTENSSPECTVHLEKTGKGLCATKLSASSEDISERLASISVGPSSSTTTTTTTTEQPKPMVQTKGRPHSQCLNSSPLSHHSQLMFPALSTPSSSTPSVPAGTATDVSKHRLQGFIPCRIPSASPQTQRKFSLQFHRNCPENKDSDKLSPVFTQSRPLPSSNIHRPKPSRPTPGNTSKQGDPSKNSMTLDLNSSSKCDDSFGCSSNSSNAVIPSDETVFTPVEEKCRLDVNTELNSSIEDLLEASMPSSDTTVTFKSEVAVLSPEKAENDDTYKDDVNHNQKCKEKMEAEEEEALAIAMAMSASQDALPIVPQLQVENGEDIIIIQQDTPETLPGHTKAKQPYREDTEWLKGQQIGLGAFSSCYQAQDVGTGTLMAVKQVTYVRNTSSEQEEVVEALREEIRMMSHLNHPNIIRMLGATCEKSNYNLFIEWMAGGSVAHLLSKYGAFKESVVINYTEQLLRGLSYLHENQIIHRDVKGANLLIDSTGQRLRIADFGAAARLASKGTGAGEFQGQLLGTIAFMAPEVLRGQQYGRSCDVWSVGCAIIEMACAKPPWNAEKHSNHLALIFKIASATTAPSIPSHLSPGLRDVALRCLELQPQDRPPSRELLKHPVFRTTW

ANKK1 (human) = ANKK1 (human) (UniProt Q8NFD2)
TLK1 (human) = TLK1 (human) (UniProt Q9UKI8)
Sequence of TLK1 (human) (Q9UKI8 whole entry, looked up): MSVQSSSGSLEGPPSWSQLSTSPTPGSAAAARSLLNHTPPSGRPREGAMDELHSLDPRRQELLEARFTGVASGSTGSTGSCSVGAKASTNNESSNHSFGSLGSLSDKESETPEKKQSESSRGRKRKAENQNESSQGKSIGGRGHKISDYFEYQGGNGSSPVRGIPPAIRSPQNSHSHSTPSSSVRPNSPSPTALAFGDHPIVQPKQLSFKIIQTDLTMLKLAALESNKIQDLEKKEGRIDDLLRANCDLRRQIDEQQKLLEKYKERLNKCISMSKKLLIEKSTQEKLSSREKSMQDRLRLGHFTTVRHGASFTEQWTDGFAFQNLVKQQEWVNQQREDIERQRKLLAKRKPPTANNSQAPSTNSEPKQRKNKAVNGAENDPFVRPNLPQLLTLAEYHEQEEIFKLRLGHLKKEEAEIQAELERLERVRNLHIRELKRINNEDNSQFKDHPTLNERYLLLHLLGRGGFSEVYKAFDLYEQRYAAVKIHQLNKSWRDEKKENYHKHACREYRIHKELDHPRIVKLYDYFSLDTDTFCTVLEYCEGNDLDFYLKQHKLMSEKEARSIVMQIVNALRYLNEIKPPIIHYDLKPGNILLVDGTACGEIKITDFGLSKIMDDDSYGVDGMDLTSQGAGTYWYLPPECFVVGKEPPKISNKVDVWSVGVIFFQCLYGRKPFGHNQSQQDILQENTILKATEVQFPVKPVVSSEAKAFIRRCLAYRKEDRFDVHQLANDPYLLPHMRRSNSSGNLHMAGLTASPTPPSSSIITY

MAP2K4 (human) = MAP2K4 (human) (UniProt P45985)
CASK (human) = CASK (human) (UniProt O14936)
[4] = test system: MET (human), P08581 [M1250T]
BLK (human) = BLK (human) (UniProt P51451)
EPHA5 (human) = EPHA5 (human) (UniProt P54756)
SRC (human) = SRC (human) (UniProt P12931)
CAMK2B (human) = CAMK2B (human) (UniProt Q13554)
GAK (human) = GAK (human) (UniProt O14976)
MAP2K5 (human) = MAP2K5 (human) (UniProt Q13163)
Sequence of MAP2K5 (human) (Q13163 whole entry, looked up): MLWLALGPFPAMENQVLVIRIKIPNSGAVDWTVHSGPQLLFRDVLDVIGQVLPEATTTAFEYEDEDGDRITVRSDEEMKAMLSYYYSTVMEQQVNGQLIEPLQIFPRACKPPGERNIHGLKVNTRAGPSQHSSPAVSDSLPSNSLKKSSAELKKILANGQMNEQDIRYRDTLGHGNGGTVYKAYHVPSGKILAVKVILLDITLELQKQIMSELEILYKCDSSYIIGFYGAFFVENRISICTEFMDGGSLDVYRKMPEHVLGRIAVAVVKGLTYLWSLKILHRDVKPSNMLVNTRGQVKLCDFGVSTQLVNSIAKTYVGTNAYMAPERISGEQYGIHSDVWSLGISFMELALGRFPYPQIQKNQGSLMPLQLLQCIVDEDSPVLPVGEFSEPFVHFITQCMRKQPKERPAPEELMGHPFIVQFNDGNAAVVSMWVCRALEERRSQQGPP

CSNK1G3 (human) = CSNK1G3 (human) (UniProt Q9Y6M4)
Sequence of CSNK1G3 (human) (Q9Y6M4 whole entry, looked up): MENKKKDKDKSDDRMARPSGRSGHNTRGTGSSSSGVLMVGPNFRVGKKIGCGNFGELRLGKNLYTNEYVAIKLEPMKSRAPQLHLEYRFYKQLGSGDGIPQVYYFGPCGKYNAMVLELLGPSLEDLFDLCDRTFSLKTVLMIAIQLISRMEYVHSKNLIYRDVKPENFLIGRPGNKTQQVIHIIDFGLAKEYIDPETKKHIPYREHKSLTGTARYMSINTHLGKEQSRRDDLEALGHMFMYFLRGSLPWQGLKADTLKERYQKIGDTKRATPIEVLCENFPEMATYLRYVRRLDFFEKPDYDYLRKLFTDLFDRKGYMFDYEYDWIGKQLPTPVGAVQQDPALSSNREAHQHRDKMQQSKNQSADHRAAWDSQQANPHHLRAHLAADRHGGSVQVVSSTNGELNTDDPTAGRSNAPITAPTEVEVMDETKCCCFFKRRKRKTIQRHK

[5] = test system: PIK3CA (human), P42336 [E542K]
Sequence of PIK3CA (human), P42336 [E542K] (P42336 whole entry E542K, looked up): as the sequence (P42336 whole entry, looked up) above, with E542K counted along it

`CN(C)C/C=C/C(=O)Nc1cccc(C(=O)Nc2ccc(Nc3nccc(-c4c(-c5ccccc5)nn5ccccc45)n3)cc2)c1` gave a kinase still bound, per cent of control (CSNK2A1 (human)) of 74%, a kinase still bound, per cent of control [1] of 100% and a kinase still bound, per cent of control (ACVR1B (human)) of 8.4%. It also gave a kinase still bound, per cent of control (MAK (human)) of 100%, a kinase still bound, per cent of control (LATS1 (human)) of 95% and a kinase still bound, per cent of control (DSTYK (human)) of 80%. It also gave a kinase still bound, per cent of control (MAP4K4 (human)) of 9.8%, a kinase still bound, per cent of control (CSNK2A2 (human)) of 100% and a kinase still bound, per cent of control (MYLK (human)) of 77%. For the same compound, the kinase still bound, per cent of control (BMX (human)) was 76%, the kinase still bound, per cent of control (STK38 (human)) was 97% and the kinase still bound, per cent of control (ABL2 (human)) was 21%. It also gave a kinase still bound, per cent of control (CDK9 (human)) of 100%, a kinase still bound, per cent of control (BMP2K (human)) of 100% and a kinase still bound, per cent of control [2] of 54%. The kinase still bound, per cent of control (LIMK1 (human)) was 100%, the kinase still bound, per cent of control [3] was 100% and the kinase still bound, per cent of control (PRKCI (human)) was 46%. It also gave a kinase still bound, per cent of control (DYRK1B (human)) of 100%, a kinase still bound, per cent of control (PIK3CA (human)) of 99% and a kinase still bound, per cent of control (CDK8 (human)) of 100%. For the same compound, the kinase still bound, per cent of control (MAPK15 (human)) was 93%, the kinase still bound, per cent of control (SNRK (human)) was 100% and the kinase still bound, per cent of control (BMPR1B (human)) was 47%. The kinase still bound, per cent of control (DCLK1 (human)) was 93%, the kinase still bound, per cent of control (DCLK3 (human)) was 86% and the kinase still bound, per cent of control (EPHA4 (human)) was 89%. It also gave a kinase still bound, per cent of control (RIPK1 (human)) of 73%, a kinase still bound, per cent of control (GRK4 (human)) of 93% and a kinase still bound, per cent of control (MAP3K1 (human)) of 96%. For the same compound, the kinase still bound, per cent of control (ANKK1 (human)) was 73%, the kinase still bound, per cent of control (TLK1 (human)) was 67% and the kinase still bound, per cent of control (MAP2K4 (human)) was 100%. The kinase still bound, per cent of control (CASK (human)) was 52%, the kinase still bound, per cent of control [4] was 70% and the kinase still bound, per cent of control (BLK (human)) was 5.9%. It also gave a kinase still bound, per cent of control (EPHA5 (human)) of 98%, a kinase still bound, per cent of control (SRC (human)) of 18% and a kinase still bound, per cent of control (CAMK2B (human)) of 100%. It also gave a kinase still bound, per cent of control (GAK (human)) of 2.4%, a kinase still bound, per cent of control (MAP2K5 (human)) of 23% and a kinase still bound, per cent of control (CSNK1G3 (human)) of 1.2%. It also gave a kinase still bound, per cent of control [5] of 91%.
Work on `CN(C)C/C=C/C(=O)Nc1cccc(C(=O)Nc2ccc(Nc3nccc(/C(C#N)=C4\Nc5ccccc5S4)n3)cc2)c1` yielded a kinase still bound, per cent of control (CSNK2A1 (human)) of 27%, a kinase still bound, per cent of control [1] of 100% and a kinase still bound, per cent of control (ACVR1B (human)) of 96%. The kinase still bound, per cent of control (MAK (human)) was 93%, the kinase still bound, per cent of control (LATS1 (human)) was 89% and the kinase still bound, per cent of control (DSTYK (human)) was 100%. The kinase still bound, per cent of control (MAP4K4 (human)) was 100%, the kinase still bound, per cent of control (CSNK2A2 (human)) was 8% and the kinase still bound, per cent of control (MYLK (human)) was 100%. The kinase still bound, per cent of control (BMX (human)) was 88%, the kinase still bound, per cent of control (STK38 (human)) was 100% and the kinase still bound, per cent of control (ABL2 (human)) was 100%. It also gave a kinase still bound, per cent of control (CDK9 (human)) of 100%, a kinase still bound, per cent of control (BMP2K (human)) of 51% and a kinase still bound, per cent of control [2] of 73%. For the same compound, the kinase still bound, per cent of control (LIMK1 (human)) was 100%, the kinase still bound, per cent of control [3] was 33% and the kinase still bound, per cent of control (PRKCI (human)) was 100%. The kinase still bound, per cent of control (DYRK1B (human)) was 66%, the kinase still bound, per cent of control (PIK3CA (human)) was 64% and the kinase still bound, per cent of control (CDK8 (human)) was 100%. It also gave a kinase still bound, per cent of control (MAPK15 (human)) of 76%, a kinase still bound, per cent of control (SNRK (human)) of 100% and a kinase still bound, per cent of control (BMPR1B (human)) of 100%. It also gave a kinase still bound, per cent of control (DCLK1 (human)) of 100%, a kinase still bound, per cent of control (DCLK3 (human)) of 100% and a kinase still bound, per cent of control (EPHA4 (human)) of 100%. For the same compound, the kinase still bound, per cent of control (RIPK1 (human)) was 85%, the kinase still bound, per cent of control (GRK4 (human)) was 78% and the kinase still bound, per cent of control (MAP3K1 (human)) was 100%. For the same compound, the kinase still bound, per cent of control (ANKK1 (human)) was 100%, the kinase still bound, per cent of control (TLK1 (human)) was 100% and the kinase still bound, per cent of control (MAP2K4 (human)) was 100%. For the same compound, the kinase still bound, per cent of control (CASK (human)) was 100%, the kinase still bound, per cent of control [4] was 79% and the kinase still bound, per cent of control (BLK (human)) was 100%. The kinase still bound, per cent of control (EPHA5 (human)) was 100%, the kinase still bound, per cent of control (SRC (human)) was 100% and the kinase still bound, per cent of control (CAMK2B (human)) was 100%. The kinase still bound, per cent of control (GAK (human)) was 79%, the kinase still bound, per cent of control (MAP2K5 (human)) was 100% and the kinase still bound, per cent of control (CSNK1G3 (human)) was 37%. For the same compound, the kinase still bound, per cent of control [5] was 100%.
